How the values were obtained:
[1] = Clinical pharmacokinetic data converted to in vitro concentrations; conditions: human, in vivo
Description: Given the different potencies of the JAK inhibitors and different pharmacokinetic properties for each drug, it was sought to test each drug at a relevant range of physiological concentrations based on clinical dosing and reported pharmacokinetic data from repeat dose studies. Reported Cmax values in patient sera were converted to in vitro concentrations and adjusted for reported plasma protein binding.

[2] = system: phospho-STAT panel (pSTAT3/4/5), CD3+ T cells; experiment: phospho-STAT induction by IL-6, MesoScale Discovery phospho-STAT panel; type: cell-based, human; conditions: CD3+ T cells
How it was run: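 CD19 CAR-T cells, PBMC or CD3+ T cells, rested overnight, were stimulated at 700,000 cells/well with 100 ng/ml IL6 plus compound for 20 minutes at 37° C. Cells were lysed in Tris buffer and pSTAT3/4/5 measured by MSD electrochemiluminescence immunoassay.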

[3] = system: phospho-STAT-1, -3 and -5 in purified CD14+ monocytes; experiment: Intracellular phospho-STAT-1, -3, -5 by BD PhosphoFlow in purified monocytes; type: cell-based, human; set-up: Monocyte-specific pSTAT1 signaling, inhibition / Monocyte-specific pSTAT3 signaling, inhibition / Monocyte-specific pSTAT5 signaling, inhibition: concentration or dose not given beside the values; conditions: purified CD14+ monocytes
Description: (§1) Further experiments were performed to look at impacts of JAK inhibitors on STAT phosphorylation in various immune cell subsets.

[4] = system: phospho-STAT-1, -3 and -5 in CD4, CD8 T cells and monocytes (CAR T product, PBMCs); experiment: Intracellular phospho-STAT-1, -3, -5 by flow cytometry in immune cell subsets of CAR T product and PBMCs; type: cell-based, human; set-up: Primary Cell IL-6 pSTAT5 signaling (% inhibition) / Primary Cell IL-6 pSTAT1 signaling (% inhibition) / Primary Cell IL-6 pSTAT3 signaling (% inhibition) / Primary cell GM-CSF-pSTAT5, inhibition: concentration or dose not given beside the values
Description: as §1

in vitro = conditions: human, CAR-T cells
[5] = system: NALM6.GFP.LUC.CD19 target cells; experiment: Serial killing assay of CAR-T, percent cytotoxicity by luciferase detection; conditions: two different E:T ratios, dose titration
Description: The percent cytotoxicity to NALM6.GFP.LUC.CD19 target cells was measured by luciferase detection at each round.
In one embodiment, a serial killing assay is a combination of cell killing and how long it takes for CAR T cells to get exhausted under repeated stimulation. In one embodiment, a serial killing assay is a surrogate measure for CAR T cell persistence in vivo.

[6] = CAR T cell-derived supernatant, 30 min

## CC[C@@H]1CN(C(=O)NCC(F)(F)F)C[C@@H]1c1cnc2cnc3[nH]ccc3n12 [upadacitinib]
[1]
  PPB adj. in Vitro concentration: 97 nM
  clinically relevant dose level (in vitro concentration): ~100 nM
[2]; 100 ng/ml IL-6 + drug 10 uM, 20 min, MSD signal (No stim. 689, IL-6 alone 33641)
  pSTAT3: 2450
[2]; 100 ng/ml IL-6 + drug 10 uM, 20 min, MSD signal (No stim. 1964, IL-6 alone 15405)
  pSTAT4: 2322
[2]; 100 ng/ml IL-6 + drug 10 uM, 20 min, MSD signal (No stim. 9210, IL-6 alone 17743)
  pSTAT5: 1354
[2]; IL-6 + drug 0.125 uM, MSD signal (No stim. 689, IL-6 alone 33641)
  pSTAT3: 3605
[2]; IL-6 + drug 0.125 uM, MSD signal (No stim. 1964, IL-6 alone 15405)
  pSTAT4: 2819
[2]; IL-6 + drug 0.125 uM, MSD signal (No stim. 9210, IL-6 alone 17743)
  pSTAT5: 1757
[2]; IL-6 + drug 0.5 uM, MSD signal (No stim. 689, IL-6 alone 33641)
  pSTAT3: 2207
[2]; IL-6 + drug 0.5 uM, MSD signal (No stim. 1964, IL-6 alone 15405)
  pSTAT4: 2397
[2]; IL-6 + drug 0.5 uM, MSD signal (No stim. 9210, IL-6 alone 17743)
  pSTAT5: 1528
[2]; IL-6 + drug 1 uM, MSD signal (No stim. 689, IL-6 alone 33641)
  pSTAT3: 2393
[2]; IL-6 + drug 1 uM, MSD signal (No stim. 1964, IL-6 alone 15405)
  pSTAT4: 2417
[2]; IL-6 + drug 1 uM, MSD signal (No stim. 9210, IL-6 alone 17743)
  pSTAT5: 1534
[2]; IL-6 + drug 5 uM, MSD signal (No stim. 689, IL-6 alone 33641)
  pSTAT3: 2290
[2]; IL-6 + drug 5 uM, MSD signal (No stim. 1964, IL-6 alone 15405)
  pSTAT4: 2229
[2]; IL-6 + drug 5 uM, MSD signal (No stim. 9210, IL-6 alone 17743)
  pSTAT5: 1452
[2]; lower dose titration, IL-6 + drug 3.125 nM, MSD signal (No stim. 123, IL-6 alone 5767)
  pSTAT3: 4615
[2]; lower dose titration, IL-6 + drug 3.125 nM, MSD signal (No stim. 281, IL-6 alone 3624)
  pSTAT4: 2687
[2]; lower dose titration, IL-6 + drug 3.125 nM, MSD signal (No stim. 324, IL-6 alone 2352)
  pSTAT5: 1166
[2]; lower dose titration, IL-6 + drug 6.25 nM, MSD signal (No stim. 123, IL-6 alone 5767)
  pSTAT3: 3572
[2]; lower dose titration, IL-6 + drug 6.25 nM, MSD signal (No stim. 281, IL-6 alone 3624)
  pSTAT4: 2797
[2]; lower dose titration, IL-6 + drug 6.25 nM, MSD signal (No stim. 324, IL-6 alone 2352)
  pSTAT5: 1123
[2]; lower dose titration, IL-6 + drug 12.5 nM, MSD signal (No stim. 123, IL-6 alone 5767)
  pSTAT3: 2560
[2]; lower dose titration, IL-6 + drug 12.5 nM, MSD signal (No stim. 281, IL-6 alone 3624)
  pSTAT4: 1607
[2]; lower dose titration, IL-6 + drug 12.5 nM, MSD signal (No stim. 324, IL-6 alone 2352)
  pSTAT5: 696
[2]; lower dose titration, IL-6 + drug 25 nM, MSD signal (No stim. 123, IL-6 alone 5767)
  pSTAT3: 1495
[2]; lower dose titration, IL-6 + drug 25 nM, MSD signal (No stim. 281, IL-6 alone 3624)
  pSTAT4: 1248
[2]; lower dose titration, IL-6 + drug 25 nM, MSD signal (No stim. 324, IL-6 alone 2352)
  pSTAT5: 564
[2]; lower dose titration, IL-6 + drug 50 nM, MSD signal (No stim. 123, IL-6 alone 5767)
  pSTAT3: 713
[2]; lower dose titration, IL-6 + drug 50 nM, MSD signal (No stim. 281, IL-6 alone 3624)
  pSTAT4: 860
[2]; lower dose titration, IL-6 + drug 50 nM, MSD signal (No stim. 324, IL-6 alone 2352)
  pSTAT5: 460
[2]; lower dose titration, IL-6 + drug 100 nM, MSD signal (No stim. 123, IL-6 alone 5767)
  pSTAT3: 319
[2]; lower dose titration, IL-6 + drug 100 nM, MSD signal (No stim. 281, IL-6 alone 3624)
  pSTAT4: 555
[2]; lower dose titration, IL-6 + drug 100 nM, MSD signal (No stim. 324, IL-6 alone 2352)
  pSTAT5: 375
[3]; [6]
  Monocyte-specific pSTAT1 signaling, inhibition: 100%
  Monocyte-specific pSTAT3 signaling, inhibition: 100%
  Monocyte-specific pSTAT5 signaling, inhibition: 63%
[3]; rh-GM-CSF-induced
  Monocyte-specific pSTAT1 signaling, inhibition: na/ni
  Monocyte-specific pSTAT3 signaling, inhibition: na/ni
  Monocyte-specific pSTAT5 signaling, inhibition: 54%
[3]; rhIFNg-induced
  Monocyte-specific pSTAT1 signaling, inhibition: 100%
  Monocyte-specific pSTAT3 signaling, inhibition: 100%
  Monocyte-specific pSTAT5 signaling, inhibition: 100%
[3]; rhIL6-induced
  Monocyte-specific pSTAT1 signaling, inhibition: na/ni
  Monocyte-specific pSTAT3 signaling, inhibition: 100%
  Monocyte-specific pSTAT5 signaling, inhibition: na/ni
[4]; CD4 CART cells
  Primary Cell IL-6 pSTAT1 signaling (% inhibition): 49%
  Primary Cell IL-6 pSTAT3 signaling (% inhibition): 76%
  Primary Cell IL-6 pSTAT5 signaling (% inhibition): 60%
[4]; CD8 CART cells
  Primary Cell IL-6 pSTAT1 signaling (% inhibition): 13%
  Primary Cell IL-6 pSTAT3 signaling (% inhibition): 48%
  Primary Cell IL-6 pSTAT5 signaling (% inhibition): 52%
[4]; Monocytes within bulk PBMCs
  Primary cell GM-CSF-pSTAT5, inhibition: 97%
[4]; PBMC CD4 T cells
  Primary Cell IL-6 pSTAT1 signaling (% inhibition): 74%
  Primary Cell IL-6 pSTAT3 signaling (% inhibition): 91%
  Primary Cell IL-6 pSTAT5 signaling (% inhibition): 87%
[4]; PBMC CD8 T cells
  Primary Cell IL-6 pSTAT1 signaling (% inhibition): 32%
  Primary Cell IL-6 pSTAT3 signaling (% inhibition): 70%
  Primary Cell IL-6 pSTAT5 signaling (% inhibition): 56%
[4]; PBMC Monocytes
  Primary Cell IL-6 pSTAT1 signaling (% inhibition): 48%
  Primary Cell IL-6 pSTAT3 signaling (% inhibition): 93%
  Primary Cell IL-6 pSTAT5 signaling (% inhibition): 48%
[4]; T cells within bulk PBMCs
  Primary cell GM-CSF-pSTAT5, inhibition: 47%
In vitro
  viability at 0 day, 50 nM: 75%
  viability at 0 day, 100 nM: 75%
  viability at 4 day, 50 nM: 63.2%
  viability at 4 day, 100 nM: 59.9%
  viability at 8 day, 50 nM: 65.3%
  viability at 8 day, 100 nM: 62%
  viability at 12 day, 50 nM: 79%
  viability at 12 day, 100 nM: 67.5%
[5]
  impact on CAR-T serial killing (percent cytotoxicity): negative impacts

From US12252701B2, “Chimeric antigen receptor T cell therapy” (KITE PHARMA, INC., priority 2020, dated 2025)
